The values below come from publication PMC11191101, “Investigation of Newly Synthesized Fluorinated Isatin-Hydrazones by In Vitro Antiproliferative Activity, Molecular Docking, ADME Analysis, and e-Pharmacophore Modeling” (ACS Omega, 2024).

Each structure is given as a SMILES string. “Also recorded” adds a separate entry of the source.

Data set [1] has as its system HEK-293T human normal embryonic kidney cell line. Nature of the data set: MTT toxicity, HEK-293T normal cells. The note with it: 72 h; for IC50: MTT, normal cell line, 200, 100, 50, 25 μM tested; for toxic effect on healthy HEK-293T cells (in words): up to 200 μM. The format is cell-based. On the procedure: (§1) Compounds (1–15) were screened in two cancer and normal cell lines at concentrations of 200, 100, 50, and 25 μM for 72 h.
(§2) This section of the study was performed following the procedure described in our previous study.[51],[52] The human lung cancer cell line (A549; ATCC CCL-185), human liver cancer cell line (HepG2; ATCC HB-8065), and human normal embryonic kidney cell line (HEK-293T) were cultured in high-glucose Dulbecco’s modified Eagle’s medium supplemented with 10% fetal bovine serum and 1% glutamax. Cells were seeded at a density of 5 × 10^3 cells/well in sterile 96-well plates and incubated for 24 h. Following incubation, the cells were exposed to the prepared compounds (1–15) and cisplatin at 200, 100, 50, and 25 μM concentrations for 72 h. After the incubation period, the medium in the plates was carefully removed and the prepared MTT solution was added to each well of the plates. The plates were incubated for 2 h in an incubator. Absorbance was measured using an Epoch 2 ELISA plate reader at 590 nm. The IC50 values were calculated using GraphPad Prism Software version 5.

The test system of data set [2] is A549 human lung epithelial carcinoma cell line. The data set can be described thus: MTT cytotoxicity, A549 lung cancer cells. In kind it is cell-based. Particulars: for cytotoxic effect on A549 lung cancer cell line (in words) / selectivity index (SI), HEK-293T IC50 divided by A549 IC50: 72 h; for cytotoxic effect on A549 lung cancer cell line (in words): up to 200 μM; for IC50: MTT, 72 h, 200, 100, 50, 25 μM tested; for selectivity index (SI), HEK-293T IC50 divided by A549 IC50: IC50 >200 taken as 200. Here is the method:
as §1, §2

Data set [3] relates to HepG2 human liver epithelial carcinoma cell line. The data set can be described thus: MTT cytotoxicity, HepG2 liver cancer cells. The format is cell-based. Particulars: for cytotoxic effect on HepG2 liver cancer cell line (in words) / selectivity index (SI), HEK-293T IC50 / HepG2 IC50: 72 h; for cytotoxic effect on HepG2 liver cancer cell line (in words): up to 200 μM; for selectivity index (SI), HEK-293T IC50 / HepG2 IC50: IC50 >200 taken as 200; for IC50: Homo sapiens, HepG2, MTT, 72 h, 200, 100, 50, 25 μM tested. On the procedure: as §1, §2

Consider `COc1ccc(C=NN=C2C(=O)Nc3ccc(F)cc32)cc1` [Compound 7, 5-Fluoro-3-{[4-methoxybenzylidene]hydrazinylidene}indolin-2-one], for which the melting point (as a rule, the temperature, or range, at which the solid turns liquid) lay in the range of 247 to 248 °C. Further, half-maximal inhibition in data set [1] (Homo sapiens, HEK-293T) (IC50) was put at 197 µM. Further, the “cytotoxic effect on A549 lung cancer cell line (in words)” value in data set [2] was “not active”. Also, in data set [2] (Homo sapiens, A549), the IC50 – broadly, the concentration at which inhibition is half-maximal – was more than 200 µM. In addition, in data set [3], the “cytotoxic effect on HepG2 liver cancer cell line (in words)” value is reported as “cytotoxic effects”; the “selectivity index (SI), HEK-293T IC50 / HepG2 IC50” value was determined as 1.29; half-maximal inhibition (IC50) required 153 µM.
With `O=C1Nc2ccc(F)cc2C1=NN=Cc1ccc(Br)cc1` [Compound 3, 5-Fluoro-3-{[4-bromobenzylidene]hydrazinylidene}indolin-2-one], the melting point fell in the range of 262 to 263 °C. Moreover, the “toxic effect on healthy HEK-293T cells (in words)” value in data set [1] was “highly toxic effects”. Moreover, in data set [1] (Homo sapiens, HEK-293T), inhibition was half-maximal at 25 µM (IC50). In data set [2], the “cytotoxic effect on A549 lung cancer cell line (in words)” value is on record as “cytotoxic effect” and the “selectivity index (SI), HEK-293T IC50 divided by A549 IC50” value amounted to 0.13. In addition, in data set [2] (Homo sapiens, A549), the IC50 is 186 µM. Moreover, the IC50 in data set [3] was more than 200 µM.
With `O=C1Nc2ccc(F)cc2C1=NN=Cc1ccccc1O` [Compound 9, 5-Fluoro-3-{[2-hydroxybenzylidene]hydrazinylidene}indolin-2-one], the melting point lay in the range of 252 to 253 °C. Besides, the “toxic effect on healthy HEK-293T cells (in words)” value in data set [1] is reported as “toxic effect”. This compound had an IC50 in data set [1] (Homo sapiens, HEK-293T) of 142 µM. Further, the “cytotoxic effect on A549 lung cancer cell line (in words)” value in data set [2] is reported as “not active”. Moreover, the IC50 in data set [2] (Homo sapiens, A549) is more than 200 µM. In data set [3], this compound had an IC50 of more than 200 µM.
Compound `Cc1ccc(C=NN=C2C(=O)Nc3ccc(F)cc32)cc1` [Compound 6, 5-Fluoro-3-{[4-methylbenzylidene]hydrazinylidene}indolin-2-one] gave a melting point of 241 to 242 °C. Further, the “toxic effect on healthy HEK-293T cells (in words)” value in data set [1] was “toxic effect”. In data set [1] (Homo sapiens, HEK-293T), this compound returned an IC50 of 140 µM. Also, in data set [2], the “cytotoxic effect on A549 lung cancer cell line (in words)” value is listed as “not active”. The compound further registered a 50% inhibitory concentration (IC50) in data set [2] (Homo sapiens, A549) of more than 200 µM. The compound further showed an IC50 in data set [3] of more than 200 µM.
Compound `COc1ccc(C=NN=C2C(=O)Nc3ccc(F)cc32)cc1O` [Compound 14, 5-Fluoro-3-{[3-hydroxy-4-methoxybenzylidene]hydrazinylidene}indolin-2-one] had a melting point of 263 to 264 °C. In data set [1] (Homo sapiens, HEK-293T), this compound displayed an IC50 of more than 200 µM. For the same compound, in data set [2], the “cytotoxic effect on A549 lung cancer cell line (in words)” value is listed as “cytotoxic effect” and the “selectivity index (SI), HEK-293T IC50 divided by A549 IC50” value is reported as more than 1.73. Also, the IC50 in data set [2] (Homo sapiens, A549) was determined as 115 µM. In data set [3], this compound displayed an IC50 of more than 200 µM.
For the compound `O=C1Nc2ccc(F)cc2C1=NN=Cc1ccccc1` [Compound 2, 5-Fluoro-3-{[benzylidene]hydrazinylidene}indolin-2-one], the melting point was 229 to 230 °C. The IC50 in data set [1] (Homo sapiens, HEK-293T) was more than 200 µM. For the same compound, in data set [2], the “cytotoxic effect on A549 lung cancer cell line (in words)” value is “not active”. For the same compound, the IC50 in data set [2] (Homo sapiens, A549) is more than 200 µM. Besides, the IC50 in data set [3] was more than 200 µM.
The compound `COc1cc(C=NN=C2C(=O)Nc3ccc(F)cc32)ccc1O` [Compound 15, 5-Fluoro-3-{[4-hydroxy-3-methoxybenzylidene]hydrazinylidene}indolin-2-one] returned a melting point of 232 to 233 °C. In data set [1] (Homo sapiens, HEK-293T), this compound displayed an IC50 of more than 200 µM. For the same compound, the “cytotoxic effect on A549 lung cancer cell line (in words)” value in data set [2] is given as “not active”. This compound displayed an IC50 in data set [2] (Homo sapiens, A549) of more than 200 µM. This compound also came in with an IC50 in data set [3] of more than 200 µM.
Turning to `NN=C1C(=O)Nc2ccc(F)cc21` [Compound 1, 5-Fluoro-3-hydrazonoindolin-2-one], the melting point lay in the range of 203 to 204 °C. In data set [1] (Homo sapiens, HEK-293T), the IC50 is more than 200 µM. The “cytotoxic effect on A549 lung cancer cell line (in words)” value in data set [2] is given as “not active”. The compound also came in with an IC50 in data set [2] (Homo sapiens, A549) of more than 200 µM. The IC50 in data set [3] was more than 200 µM.
As to `COc1cccc(C=NN=C2C(=O)Nc3ccc(F)cc32)c1O` [Compound 12, 5-Fluoro-3-{[2-hydroxy-3-methoxybenzylidene]hydrazinylidene}indolin-2-one], the melting point lay within 244 to 246 °C. The compound also displayed a 50% inhibitory concentration (IC50) in data set [1] (Homo sapiens, HEK-293T) of more than 200 µM. In addition, in data set [2], the “cytotoxic effect on A549 lung cancer cell line (in words)” value was “cytotoxic effect” and the “selectivity index (SI), HEK-293T IC50 divided by A549 IC50” value is more than 1.33. This compound also showed an IC50 in data set [2] (Homo sapiens, A549) of 150 µM. The compound also registered an IC50 in data set [3] of more than 200 µM.
Regarding `O=C1Nc2ccc(F)cc2C1=NN=Cc1ccc(O)cc1` [Compound 11, 5-Fluoro-3-{[4-hydroxybenzylidene]hydrazinylidene}indolin-2-one], the melting point is 275 to 276 °C. Further, the IC50 in data set [1] (Homo sapiens, HEK-293T) is more than 200 µM. For the same compound, the “cytotoxic effect on A549 lung cancer cell line (in words)” value in data set [2] is “not active”. This compound also came in with an IC50 in data set [2] (Homo sapiens, A549) of more than 200 µM. This compound also registered an IC50 in data set [3] of more than 200 µM.
Regarding `N.N.[Cl][Pt][Cl]` [cisplatin, reference compound], the figures for the IC50 in data set [1] and in data set [2] were 7.48 µM and 4.19 µM, respectively.
Compound `O=C1Nc2ccc(F)cc2C1=NN=Cc1cccc(O)c1` [Compound 10, 5-Fluoro-3-{[3-hydroxybenzylidene]hydrazinylidene}indolin-2-one] yielded a melting point of 260 to 261 °C. For the same compound, in data set [1] (Homo sapiens, HEK-293T), the IC50 was 87 µM. For the same compound, in data set [2], the “cytotoxic effect on A549 lung cancer cell line (in words)” value was “cytotoxic effect” and the “selectivity index (SI), HEK-293T IC50 divided by A549 IC50” value came to 0.48. This compound came in with an IC50 in data set [2] (Homo sapiens, A549) of 180 µM. Moreover, in data set [3], the “cytotoxic effect on HepG2 liver cancer cell line (in words)” value was “cytotoxic effects”; the “selectivity index (SI), HEK-293T IC50 / HepG2 IC50” value is reported as 0.52; half-maximal inhibition (IC50) was put at 166 µM.
On to `O=C1Nc2ccc(F)cc2C1=NN=Cc1ccc(F)cc1` [Compound 5, 5-Fluoro-3-{[4-fluorobenzylidene]hydrazinylidene}indolin-2-one], for which the melting point lay in the range of 246 to 248 °C. The “toxic effect on healthy HEK-293T cells (in words)” value in data set [1] is listed as “did not show high toxicity”. This compound also yielded an IC50 in data set [1] (Homo sapiens, HEK-293T) of 193 µM. For the same compound, in data set [2], the “cytotoxic effect on A549 lung cancer cell line (in words)” value was “not active”. In addition, the IC50 in data set [2] (Homo sapiens, A549) is more than 200 µM. In data set [3], the “cytotoxic effect on HepG2 liver cancer cell line (in words)” value is listed as “cytotoxic effects”; the “selectivity index (SI), HEK-293T IC50 / HepG2 IC50” value is reported as 1.78; the midpoint of inhibition, the IC50, lay at 108 µM.
The compound `COc1ccc(C=NN=C2C(=O)Nc3ccc(F)cc32)c(O)c1` [Compound 13, 5-Fluoro-3-{[2-hydroxy-4-methoxybenzylidene]hydrazinylidene}indolin-2-one] displayed a melting point of 257 to 258 °C. In data set [1] (Homo sapiens, HEK-293T), this compound gave an IC50 of more than 200 µM. Further, the “cytotoxic effect on A549 lung cancer cell line (in words)” value in data set [2] is recorded as “not active”. The IC50 in data set [2] (Homo sapiens, A549) was more than 200 µM. Moreover, in data set [3], the IC50 was more than 200 µM.
`O=C1Nc2ccc(F)cc2C1=NN=Cc1ccc(Cl)cc1` [Compound 4, 5-Fluoro-3-{[4-chlorobenzylidene]hydrazinylidene}indolin-2-one] yielded a melting point of 257 to 258 °C. The “toxic effect on healthy HEK-293T cells (in words)” value in data set [1] is “toxic effect; also recorded: highly toxic effects”. Moreover, the IC50 in data set [1] (Homo sapiens, HEK-293T) was 29.3 µM. For the same compound, the “cytotoxic effect on A549 lung cancer cell line (in words)” value in data set [2] was “not active”. The compound also had an IC50 in data set [2] (Homo sapiens, A549) of more than 200 µM. In data set [3], this compound showed an IC50 of more than 200 µM.
The compound `O=C1Nc2ccc(F)cc2C1=NN=Cc1ccc([N+](=O)[O-])cc1` [Compound 8, 5-Fluoro-3-{[4-nitrobenzylidene]hydrazinylidene}indolin-2-one] displayed a melting point of 249 to 251 °C. Also, the IC50 in data set [1] (Homo sapiens, HEK-293T) was 6.04 µM. In data set [2], the “cytotoxic effect on A549 lung cancer cell line (in words)” value was “cytotoxic effect” and the “selectivity index (SI), HEK-293T IC50 divided by A549 IC50” value is 0.14. Moreover, the IC50 in data set [2] (Homo sapiens, A549) is 42.4 µM. Moreover, in data set [3], the “cytotoxic effect on HepG2 liver cancer cell line (in words)” value is recorded as “cytotoxic effects”; the “selectivity index (SI), HEK-293T IC50 / HepG2 IC50” value was 0.12; the IC50 is 48.4 µM.
